Active and inactive are the calls of the source.
Tests used:
[1] = target: T1, Neuropeptide Y receptor type 2 (Homo sapiens, UniProt P49146); assay: Fluorescence-based cell-based high-throughput dose response assay for agonists of NPY-Y2. [Related pubchem assays: 1703 (Screening assay (CNGC inhibitors).), 1359 (Screening assay (NPY-Y2 potentiators or agonists).), 1304 (Screening assay (NPY-Y1 potentiators or agonists).), 1710 (Screening assay (NPY-Y2 agonists).), 1791 (Summary AID.)]; format: functional
[2] = tested on: HEK293; assay: Fluorescence-based counterscreen for potentiators or agonists of NPY-Y2: cell-based high-throughput dose response assay to identify inhibitors of cyclic nucleotide gated ion channel (CNGC) activity. In this assay, the parental HEK293 cell line transfected with a cyclic-nucleotide gated ion channel (CNGC)-based cAMP sensor is used to measure inhibition of isoproterenol-induced CNGC activity by test compound.; format: functional; conditions: Homo sapiens
[3] = target: T2, Neuropeptide Y receptor type 1 (Homo sapiens, UniProt P25929); assay: Fluorescence-based counterscreen for agonists of NPY-Y2: cell-based high-throughput dose response assay for agonists of NPY-Y1.; format: functional
[4] = tested on: HeLa; assay: Cytotoxicity counterscreen assay for transcriptional activators of heat shock protein 70 (Hsp70). [Related pubchem assays: 1203, 1252 ]; format: functional; conditions: Homo sapiens;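 note: cells exposed to compound for 16 hours before readout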
[5] = reduction of Shn3 3'UTR-driven luciferase in osteoblasts – cell-based, Clone20 osteoblasts, firefly luciferase, cherry-picked, dose response (AID 624132); format: functional;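 note: firefly luciferase luminescence from reporter carrying the Shn3 3'UTR in osteoblasts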
[6] = target: T3, Replicative DNA helicase DnaB (Mycobacterium tuberculosis, UniProt P9WMR3); assay: DnaB intein splicing inhibitors, dose response, biochemical, cell-free fluorescence (AID 449749); format: functional
T3 sequence (P9WMR3 whole entry): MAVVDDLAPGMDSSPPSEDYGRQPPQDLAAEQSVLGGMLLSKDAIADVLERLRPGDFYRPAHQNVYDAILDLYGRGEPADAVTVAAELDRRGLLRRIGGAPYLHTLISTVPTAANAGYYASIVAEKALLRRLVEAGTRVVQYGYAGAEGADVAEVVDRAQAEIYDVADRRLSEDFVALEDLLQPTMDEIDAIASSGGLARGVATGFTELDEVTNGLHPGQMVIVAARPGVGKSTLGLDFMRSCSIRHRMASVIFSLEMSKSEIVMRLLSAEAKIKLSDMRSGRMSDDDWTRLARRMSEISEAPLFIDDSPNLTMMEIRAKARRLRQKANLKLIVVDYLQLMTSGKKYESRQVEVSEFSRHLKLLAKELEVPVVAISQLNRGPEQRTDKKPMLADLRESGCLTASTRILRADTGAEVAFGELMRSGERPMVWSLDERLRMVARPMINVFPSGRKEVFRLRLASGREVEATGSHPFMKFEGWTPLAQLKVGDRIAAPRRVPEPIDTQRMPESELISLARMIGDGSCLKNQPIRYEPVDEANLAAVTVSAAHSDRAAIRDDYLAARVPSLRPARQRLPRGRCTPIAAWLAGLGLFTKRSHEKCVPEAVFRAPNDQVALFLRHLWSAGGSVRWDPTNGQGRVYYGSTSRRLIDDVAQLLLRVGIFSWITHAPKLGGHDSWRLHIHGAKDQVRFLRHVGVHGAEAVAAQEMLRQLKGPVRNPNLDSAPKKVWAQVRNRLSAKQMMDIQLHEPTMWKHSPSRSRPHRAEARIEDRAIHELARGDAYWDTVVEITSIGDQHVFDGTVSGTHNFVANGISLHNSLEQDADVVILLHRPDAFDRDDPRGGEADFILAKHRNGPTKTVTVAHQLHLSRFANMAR

[7] = target: T4, High affinity choline transporter 1 (Homo sapiens, UniProt Q9GZV3); assay: human choline transporter blockers, potency – cell-based, 10-point CRC, membrane potential dye, dose response (AID 588401); format: functional;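 note: membrane potential dye fluorescence of choline-evoked depolarization via CHT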
T4 sequence (Q9GZV3 whole entry): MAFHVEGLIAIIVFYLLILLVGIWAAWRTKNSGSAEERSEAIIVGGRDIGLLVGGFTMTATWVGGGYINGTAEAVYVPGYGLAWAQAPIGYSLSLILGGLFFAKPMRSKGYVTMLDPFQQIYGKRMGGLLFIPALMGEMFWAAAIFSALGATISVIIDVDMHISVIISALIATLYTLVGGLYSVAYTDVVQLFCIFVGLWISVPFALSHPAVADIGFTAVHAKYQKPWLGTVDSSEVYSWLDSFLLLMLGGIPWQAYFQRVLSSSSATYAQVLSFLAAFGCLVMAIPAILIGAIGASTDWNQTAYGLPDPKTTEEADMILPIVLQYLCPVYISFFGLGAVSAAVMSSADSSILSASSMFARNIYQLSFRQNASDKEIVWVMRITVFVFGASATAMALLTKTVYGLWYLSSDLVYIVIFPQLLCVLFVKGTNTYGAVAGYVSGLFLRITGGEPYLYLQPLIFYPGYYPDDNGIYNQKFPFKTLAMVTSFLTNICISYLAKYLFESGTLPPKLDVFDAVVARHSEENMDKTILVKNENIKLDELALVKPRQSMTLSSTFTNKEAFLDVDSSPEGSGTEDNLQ

[8] = target: Genome polyprotein (dengue virus type 2, UniProt P29990); assay: flavivirus cap methylation enzyme inhibition – biochemical, confirmation dose response, primary screen (AID 588689); format: functional
[9] = target: T5, Protein RecA (Mycobacterium tuberculosis, UniProt P9WHJ3); assay: Fluorescence Cell-Free Homogeneous Dose Retest to Identify Inhibitors of RecA-Intein Splicing Activity. [Related pubchem assays (depositor defined):AID2097, AID2223, AID489010, AID492950]; format: functional
T5 sequence (P9WHJ3 whole entry): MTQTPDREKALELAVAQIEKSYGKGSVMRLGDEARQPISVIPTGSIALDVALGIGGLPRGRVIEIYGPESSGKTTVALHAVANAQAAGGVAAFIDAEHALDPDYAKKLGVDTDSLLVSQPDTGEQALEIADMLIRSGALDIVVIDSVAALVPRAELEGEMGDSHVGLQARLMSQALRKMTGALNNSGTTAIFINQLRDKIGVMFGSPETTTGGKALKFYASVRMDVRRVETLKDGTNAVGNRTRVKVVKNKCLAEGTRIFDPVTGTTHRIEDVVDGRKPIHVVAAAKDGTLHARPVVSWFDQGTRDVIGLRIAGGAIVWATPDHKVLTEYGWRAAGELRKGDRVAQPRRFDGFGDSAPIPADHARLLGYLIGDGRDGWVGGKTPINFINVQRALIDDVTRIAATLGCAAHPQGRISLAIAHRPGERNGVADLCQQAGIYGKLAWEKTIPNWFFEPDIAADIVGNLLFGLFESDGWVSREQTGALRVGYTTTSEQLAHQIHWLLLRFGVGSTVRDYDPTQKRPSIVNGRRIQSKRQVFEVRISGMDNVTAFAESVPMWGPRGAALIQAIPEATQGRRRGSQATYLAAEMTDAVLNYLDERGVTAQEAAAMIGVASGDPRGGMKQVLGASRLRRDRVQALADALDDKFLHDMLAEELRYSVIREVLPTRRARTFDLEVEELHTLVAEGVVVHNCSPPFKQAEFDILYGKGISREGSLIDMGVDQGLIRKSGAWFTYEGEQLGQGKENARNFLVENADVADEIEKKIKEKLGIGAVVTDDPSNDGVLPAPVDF

[10] = target: Potassium voltage-gated channel subfamily KQT member 2 (Rattus norvegicus, UniProt O88943, W236L); assay: potentiation of rat KCNQ2 current – cell-based, automated electrophysiology, mechanism study for KCNQ2 potentiator project, dose response (AID 2603); format: functional
[11] = Intein inhibitors as potential Tuberculosis drugs, a cytotoxicity screen. [Related pubchem assays (depositor defined):AID2221, AID2223, AID434968, AID435010, AID449749, AID449750, AID489010]; format: functional
[12] = target: Hepatocyte nuclear factor 4-alpha (Homo sapiens, UniProt P41235); format: functional, cell-based;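 note: biochemical luminescence-based dose-response counterscreen measuring inhibition of HNF4 dimerization, run alongside a screen for blockers of ABHD5–perilipin-5 interaction; split luciferase complementation of HNF4 fusion proteins in cell lysate measuring dimerization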
[13] = target: T6, Heat shock factor protein 1 (Mus musculus, UniProt P38532); assay: decrease of HSF1-responsive luciferase luminescence – cell-based, NIH3T3, dose retest, confirmation (AID 2382); format: functional;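 note: NIH3T3 fibroblasts with HSF1-driven luciferase reporter stressed by proteasome inhibitor MG132; luminescence from HSF1-driven luciferase expression after 8 hours of MG132 stress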
T6 sequence (P38532 whole entry): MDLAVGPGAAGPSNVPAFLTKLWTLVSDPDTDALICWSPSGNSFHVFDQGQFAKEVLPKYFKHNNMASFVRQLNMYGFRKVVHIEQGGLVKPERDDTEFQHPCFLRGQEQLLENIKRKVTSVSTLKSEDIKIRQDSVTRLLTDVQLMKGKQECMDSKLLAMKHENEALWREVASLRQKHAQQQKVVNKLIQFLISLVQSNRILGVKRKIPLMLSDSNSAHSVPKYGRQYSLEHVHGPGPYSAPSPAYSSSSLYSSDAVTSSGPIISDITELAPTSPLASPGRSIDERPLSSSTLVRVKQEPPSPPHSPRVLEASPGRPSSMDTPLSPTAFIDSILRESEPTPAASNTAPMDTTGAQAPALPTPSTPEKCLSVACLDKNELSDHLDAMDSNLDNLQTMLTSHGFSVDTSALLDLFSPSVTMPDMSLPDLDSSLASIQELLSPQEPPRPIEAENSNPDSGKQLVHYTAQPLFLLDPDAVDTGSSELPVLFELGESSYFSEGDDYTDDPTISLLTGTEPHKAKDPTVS

[14] = non-specific 3'UTR reporter inhibition in Clone20-Shn3RL – cell-based, Renilla luciferase, cherry-picked, counter-screen for Shn3 inhibitor project, dose response (AID 624133); format: functional
[15] = tested on: Vero; assay: viability of Vero cells under compound – cytotoxicity control for flavivirus capping enzyme inhibitors (AID 588742); format: functional; conditions: Chlorocebus sabaeus
[16] = target: T4, High affinity choline transporter 1; assay: human choline transporter blockers, potency – cell-based, 5-point CRC, membrane potential dye, dose response (AID 504840); format: functional
[17] = target: T2, Neuropeptide Y receptor type 1; format: functional
[18] = toxicity toward HEK293 cells – cell-based, dry powder samples, cytotoxicity control, dose response (AID 720567); format: functional
[19] = target: T1, Neuropeptide Y receptor type 2; format: functional, cell-based
[20] = Luminescence Cell-Based Dose Retest to Confirm Inhibitors of Cancer Stem Cells. [Related pubchem assays (depositor defined):AID2717, AID2721]; format: functional; conditions: Homo sapiens
[21] = viability loss in HEK293T cells – cell-based, cherry-picks, cytotoxicity control for HIV Vif inhibitor project, dose response (AID 652208); format: functional
[22] = target: Nonstructural protein 1 (Influenza A virus, UniProt Q194T2); format: functional, Influenza A virus (A/California/07/2009(H1N1))
[23] = tested on: HEK293; assay: EBV LMP1 TES2 canonical NF-kB signalling blockers – cell-based, HEK293, luciferase, cherry-pick, dose response (AID 588343); format: functional; conditions: Homo sapiens
[24] = Luminescence-based counterscreen assay for KLF5 inhibitors: dose response cell-based high throughput screening assay to identify cytotoxic compounds using the IEC-6 intestinal epithelial cell line. [Related pubchem assays: 1700 (Primary screen.), 1834 (Confirmation screen.), 1858 (Summary AID.), 1905 (Counterscreen.)]; format: functional
[25] = cells; format: functional, cell-based
[26] = NIH-3T3 fibroblast cytotoxicity, dose response, cytotoxicity control, cell-based, fluorescence, Alamar Blue, secondary assay (AID 2327); format: functional;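 note: NIH-3T3 mouse fibroblasts cultured with fluconazole at 8 µg/mL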
[27] = Trypanosoma cruzi growth suppression in host cells – NIH3T3 host cells, beta-gal luminescence, confirmation (AID 2044); format: functional, cell-based;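 note: intracellular parasites grown in NIH/3T3 mouse fibroblasts as host cells; luminescent beta-galactosidase reporter signal from transgenic T. cruzi replicating inside host cells; inhibitors lower the luminescence signal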
[28] = NIH3T3 cell viability loss – ATP luminescence, mouse fibroblasts, counter-screen, dose response (AID 2010); format: functional, cell-based;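 note: cells exposed to compound for about 90 hours before reading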
[29] = fluconazole-exposed Candida albicans growth modulators – fluorescence, retest, confirmation (AID 2467); format: functional, cell-based
[30] = tested on: INS1; assay: INS-1E survival protection against cytokine death – cell-based, luminescence, retest, dose response (AID 449756); format: functional; conditions: Rattus norvegicus;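 note: cell death triggered by IL-1 beta plus TNF-alpha plus IFN-gamma mixture; protective hits raise ATP signal compared with cytokine alone wells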
[31] = cells; format: functional, cell-based; remark: listed apart in the source
[32] = cells

T1 sequence (P49146 whole entry): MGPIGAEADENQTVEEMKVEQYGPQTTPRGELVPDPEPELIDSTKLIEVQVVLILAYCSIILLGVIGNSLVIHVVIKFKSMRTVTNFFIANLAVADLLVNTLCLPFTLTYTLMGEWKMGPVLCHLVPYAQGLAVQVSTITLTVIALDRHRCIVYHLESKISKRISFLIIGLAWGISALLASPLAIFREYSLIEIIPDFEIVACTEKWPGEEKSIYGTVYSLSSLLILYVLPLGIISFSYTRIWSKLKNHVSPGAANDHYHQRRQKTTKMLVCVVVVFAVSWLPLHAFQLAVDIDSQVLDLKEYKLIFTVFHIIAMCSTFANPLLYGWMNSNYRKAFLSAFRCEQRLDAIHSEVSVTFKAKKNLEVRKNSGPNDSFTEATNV
T2 sequence (P25929 whole entry): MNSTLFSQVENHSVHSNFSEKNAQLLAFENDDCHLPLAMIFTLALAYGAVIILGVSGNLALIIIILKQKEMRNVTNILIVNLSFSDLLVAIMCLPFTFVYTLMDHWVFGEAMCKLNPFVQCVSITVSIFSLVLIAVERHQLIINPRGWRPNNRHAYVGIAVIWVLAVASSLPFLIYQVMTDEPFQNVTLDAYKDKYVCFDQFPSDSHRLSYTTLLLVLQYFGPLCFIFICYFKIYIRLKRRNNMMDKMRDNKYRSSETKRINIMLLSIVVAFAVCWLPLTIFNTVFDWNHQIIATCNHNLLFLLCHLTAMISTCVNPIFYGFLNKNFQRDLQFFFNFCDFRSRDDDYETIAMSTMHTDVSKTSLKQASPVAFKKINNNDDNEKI
Chain of Genome polyprotein (P29990 2492-3391 limits assumed): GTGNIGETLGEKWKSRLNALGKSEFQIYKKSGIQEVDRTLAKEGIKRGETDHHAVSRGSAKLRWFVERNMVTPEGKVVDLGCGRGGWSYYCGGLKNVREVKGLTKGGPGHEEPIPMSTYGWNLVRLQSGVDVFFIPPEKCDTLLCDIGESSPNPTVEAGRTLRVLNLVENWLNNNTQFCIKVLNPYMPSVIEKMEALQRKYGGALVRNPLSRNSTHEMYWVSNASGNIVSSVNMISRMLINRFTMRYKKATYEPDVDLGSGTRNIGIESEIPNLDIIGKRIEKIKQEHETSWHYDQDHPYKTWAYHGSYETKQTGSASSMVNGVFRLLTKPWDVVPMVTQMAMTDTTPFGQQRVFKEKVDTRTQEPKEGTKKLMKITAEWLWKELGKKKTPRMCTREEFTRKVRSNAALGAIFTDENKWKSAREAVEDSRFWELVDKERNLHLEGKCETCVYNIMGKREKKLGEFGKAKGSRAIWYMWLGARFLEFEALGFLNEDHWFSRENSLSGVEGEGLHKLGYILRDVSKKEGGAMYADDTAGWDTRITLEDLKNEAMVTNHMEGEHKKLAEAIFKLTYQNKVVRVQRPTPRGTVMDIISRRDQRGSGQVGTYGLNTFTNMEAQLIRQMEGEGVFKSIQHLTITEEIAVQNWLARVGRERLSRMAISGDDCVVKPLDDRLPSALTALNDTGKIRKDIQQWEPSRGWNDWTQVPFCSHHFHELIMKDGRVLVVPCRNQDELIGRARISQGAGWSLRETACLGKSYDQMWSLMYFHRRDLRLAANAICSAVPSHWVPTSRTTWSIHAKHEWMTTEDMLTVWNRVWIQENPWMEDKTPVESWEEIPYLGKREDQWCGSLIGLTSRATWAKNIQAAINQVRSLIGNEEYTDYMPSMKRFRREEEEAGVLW
Chain of Potassium voltage-gated channel subfamily KQT member 2 (O88943 whole entry W236L): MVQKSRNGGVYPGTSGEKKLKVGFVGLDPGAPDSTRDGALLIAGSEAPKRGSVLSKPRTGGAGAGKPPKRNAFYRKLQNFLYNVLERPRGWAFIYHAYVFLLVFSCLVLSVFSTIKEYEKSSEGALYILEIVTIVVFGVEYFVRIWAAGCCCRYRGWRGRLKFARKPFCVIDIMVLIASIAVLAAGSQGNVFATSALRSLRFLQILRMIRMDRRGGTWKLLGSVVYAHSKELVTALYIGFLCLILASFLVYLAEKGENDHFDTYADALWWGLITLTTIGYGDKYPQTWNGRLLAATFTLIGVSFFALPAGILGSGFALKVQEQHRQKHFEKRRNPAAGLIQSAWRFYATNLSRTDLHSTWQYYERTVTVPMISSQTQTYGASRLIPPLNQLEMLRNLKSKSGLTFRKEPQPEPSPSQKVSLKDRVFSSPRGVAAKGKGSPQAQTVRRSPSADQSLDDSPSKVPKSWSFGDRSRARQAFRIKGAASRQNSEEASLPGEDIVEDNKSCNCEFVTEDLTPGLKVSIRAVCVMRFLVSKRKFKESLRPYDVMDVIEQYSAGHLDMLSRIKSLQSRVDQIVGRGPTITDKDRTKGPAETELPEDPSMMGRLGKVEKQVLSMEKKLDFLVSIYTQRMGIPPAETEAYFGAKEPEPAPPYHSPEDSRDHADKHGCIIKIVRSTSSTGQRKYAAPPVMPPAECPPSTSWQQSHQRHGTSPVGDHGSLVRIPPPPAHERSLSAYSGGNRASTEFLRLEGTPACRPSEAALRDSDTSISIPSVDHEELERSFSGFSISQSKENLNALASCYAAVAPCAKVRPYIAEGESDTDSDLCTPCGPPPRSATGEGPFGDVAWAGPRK
Chain of Hepatocyte nuclear factor 4-alpha (P41235 whole entry, the tested form may be a part): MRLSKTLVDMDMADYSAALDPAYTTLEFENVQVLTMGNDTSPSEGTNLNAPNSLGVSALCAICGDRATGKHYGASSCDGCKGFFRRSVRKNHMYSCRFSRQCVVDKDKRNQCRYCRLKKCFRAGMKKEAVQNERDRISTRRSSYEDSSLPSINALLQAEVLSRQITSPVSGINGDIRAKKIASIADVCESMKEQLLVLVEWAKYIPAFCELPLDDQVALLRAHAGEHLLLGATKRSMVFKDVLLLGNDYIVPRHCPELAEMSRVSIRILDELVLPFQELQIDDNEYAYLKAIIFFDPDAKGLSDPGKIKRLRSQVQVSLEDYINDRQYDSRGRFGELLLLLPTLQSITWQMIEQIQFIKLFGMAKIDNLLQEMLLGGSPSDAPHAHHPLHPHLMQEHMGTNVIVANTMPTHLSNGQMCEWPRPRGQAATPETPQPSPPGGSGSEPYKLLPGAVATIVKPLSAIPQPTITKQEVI
Chain of Nonstructural protein 1 (Q194T2 whole entry): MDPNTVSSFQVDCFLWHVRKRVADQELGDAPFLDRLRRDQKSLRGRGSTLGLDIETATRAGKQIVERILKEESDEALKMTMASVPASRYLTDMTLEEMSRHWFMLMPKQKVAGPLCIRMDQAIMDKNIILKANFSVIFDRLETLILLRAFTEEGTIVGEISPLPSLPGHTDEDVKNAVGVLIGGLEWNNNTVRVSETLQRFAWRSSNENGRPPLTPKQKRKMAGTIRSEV

Structure (SMILES): Cc1c(C(=O)O)[nH]c2ccc([N+](=O)[O-])cc12
- EC50 [1]: 6.99 µM (active)
- EC50 [2]: 6.29 µM (active)
- EC50 [3]: 6.64 µM (active)

Structure (SMILES): CCOc1ccc(NC(=O)c2ccc(NC(S)=NC3CC3)cc2)cc1
- CC50 [4]: > 99 µM (not active)

Structure (SMILES): CC(C)c1nnc(NC(=O)c2nc(S(=O)(=O)Cc3ccc(F)cc3)ncc2Cl)s1
- AC50 [5]: 2.83 µM (active)
- AC50 [6]: 3.54 µM (active)
- IC50 [7]: 4.47 µM (active)
- IC50 [8]: 96 µM (active)
- EC50 [9]: 2.73 µM (active)
- EC50 [10]: 4.47 µM (active)
- CC50 [11]: 28.1 µM (active)
- IC50 [12]: 4.69 µM (active)
- EC50 [13]: 3.33 µM (active)
- AC50 [14]: 4.34 µM (active)
- CC50 [15]: 27.1 µM (active)
- IC50 [16]: 6.08 µM (active)

Structure (SMILES): Cc1ccc(CCC(=O)Nc2ncc(Cc3cc(Cl)ccc3Cl)s2)o1
- IC50 [17]: 7.27 µM (active)
- AC50 [18]: 7.96 µM (active)
- IC50 [19]: 9.88 µM (active)
- AC50 [20]: 0.251 µM (active)
- AC50 [21]: 34.7 µM (active)

Structure (SMILES): O=C(N/N=C/c1c(O)ccc2ccccc12)c1cccnc1
- IC50 [22]: 12.1 µM (active)
- AC50 [23]: 7.53 µM (active)
- IC50 [24]: 3.67 µM (active)
- EC50 [25]: > 350 µM (not active)
- EC50 [26]: > 160 µM (inactive)
- EC50 [27]: 3.14 µM (active)
- EC50 [28]: 9.03 µM (active)
- EC50 [29]: 1.3 µM (active)
- AC50 [30]: 0.794 µM (active)
- EC50 [31]: 8.55 µM (active)

Structure (SMILES): Cc1c(Cc2ccccc2)c(=O)oc2cc(O)cc(O)c12
- IC50 [32]: 36.1 µM (active)

— ChEMBL document CHEMBL1201862, “PubChem BioAssay data set” (2004)
